From the supplement of paper PMC10307832

What was measured:
Assay in all cases: relative viability (nuclei count vs DMSO), 5 days (fraction); higher = more cells survive
[1] = compound: CNC(=O)c1ccccc1Sc1ccc2c(/C=C/c3ccccn3)n[nH]c2c1 [Axitinib] + C[C@]1(O)C[C@@H](c2nc(-c3ccc4ccc(-c5ccccc5)nc4c3)c3c(N)nccn32)C1 [Linsitinib] (partner 1 µM)
In short: (§1)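 For relative viability, nuclei counts in treated wells were divided by those in vehicle wells. Lung cancer cell lines had been pin-tool dosed in 1536-well plates the day after seeding and cultured for 5 days, then fixed and stained in one step (final 0.05% Triton X-100, 1% formaldehyde, 1 ug/ml Hoechst) and imaged at 4×. Doses were one drug alone or a fixed anchor-drug dose plus five library-drug doses (not always all listed) in √10 steps, and values are duplicate-plate medians.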

[2] = compound: CC1=CC=C(C=C1)C(=O)CN2C3=C(CCCC3)SC2=N [Pifithrin_alpha] + O=C(CCCCCCC(=O)Nc1ccccc1)NO [Vorinostat] (partner 1 µM)
In short: as §1

[3] = compound: CC1=CC=C(C=C1)C(=O)CN2C3=C(CCCC3)SC2=N [Pifithrin_alpha] + Cc1cc(Nc2cc(N3CCN(C)CC3)nc(Sc3ccc(NC(=O)C4CC4)cc3)n2)n[nH]1 [Tozasertib] (partner 0.1 µM)
In short: as §1

[4] = compound: Nc1nc(Nc2ccc3c(c2)CC[C@@H](N2CCCC2)CC3)nn1-c1cc2c(nn1)-c1ccccc1CCC2 [Bemcentinib] + N=C(N)NC(=N)NCCc1ccccc1 [Phenformin] (partner 250 µM)
In short: as §1

Cell Line | relative viability ([1]; first compound 0.005 µM) | relative viability ([1]; first compound 0.01581 µM) | relative viability ([1]; first compound 0.05 µM) | relative viability ([1]; first compound 0.1581 µM) | relative viability ([1]; first compound 0.5 µM) | relative viability ([2]; first compound 3.162 µM) | relative viability ([2]; first compound 10 µM) | relative viability ([2]; first compound 31.62 µM) | relative viability ([2]; first compound 100 µM) | relative viability ([3]; first compound 1 µM) | relative viability ([3]; first compound 10 µM) | relative viability ([3]; first compound 31.62 µM) | relative viability ([3]; first compound 100 µM) | relative viability ([4]; first compound 0.04 µM) | relative viability ([4]; first compound 0.1265 µM) | relative viability ([4]; first compound 0.4 µM) | relative viability ([4]; first compound 1.265 µM) | relative viability ([4]; first compound 4 µM) | relative viability ([3]; first compound 3.162 µM) | relative viability ([2]; first compound 1 µM)
EBC-1 | 0.935 | 0.874 | 0.884 | 0.904 | 1.1 |  |  |  |  |  |  |  |  |  |  |  |  |  |  | 
EKVX | 1.04 | 0.849 | 0.946 | 0.997 | 1.08 | 0.597 | 0.549 | 0.636 | 0.572 | 0.532 | 0.349 | 0.245 | 0.349 | 0.256 | 0.215 | 0.239 | 0.277 | 0.237 |  | 
EMC-BAC-2 | 0.874 | 0.781 | 0.813 | 0.782 | 0.837 | 0.413 |  | 0.328 | 0.413 | 0.272 | 0.283 |  | 0.248 | 0.515 | 0.516 | 0.556 | 0.507 | 0.514 | 0.288 | 
EPLC-272H | 1.33 | 1.1 | 1.32 | 1.12 | 1.07 | 0.419 | 0.244 | 0.177 | 0.27 | 0.255 | 0.169 | 0.202 | 0.292 | 0.372 | 0.273 | 0.27 | 0.296 | 0.352 | 0.13 | 0.472
H3255 | 1.08 | 0.797 | 0.83 | 0.917 | 1.03 | 0.818 | 0.788 | 0.497 | 0.703 | 0.642 | 0.574 | 0.572 | 0.708 | 0.383 | 0.318 | 0.354 | 0.418 | 0.361 | 0.896 | 0.682
HARA | 1.06 | 0.972 | 1.09 | 0.914 | 1.05 | 0.558 | 0.674 | 0.468 | 0.513 |  | 0.117 |  | 0.0634 | 0.41 | 0.541 | 0.539 | 0.434 | 0.498 | 0.107 | 
HCC-15 | 0.959 | 0.879 | 0.88 | 0.838 | 0.895 | 0.833 | 0.8 | 0.676 | 0.646 | 0.463 | 0.245 | 0.212 | 0.165 | 0.486 | 0.532 | 0.516 | 0.465 | 0.499 | 0.544 | 0.871
HCC-44 | 0.756 | 0.699 | 0.746 | 0.692 | 0.733 | 0.924 | 0.91 | 0.834 | 0.902 | 0.748 | 0.685 | 0.461 | 0.452 | 0.155 | 0.28 | 0.175 | 0.187 | 0.149 | 1.07 | 1.04
HCC-78 | 0.602 | 0.414 | 0.52 | 0.526 | 0.479 | 0.506 | 0.519 | 0.407 | 0.467 | 0.56 | 0.423 | 0.35 | 0.404 | 0.639 | 0.656 | 0.742 |  | 0.668 | 0.543 | 
